Experimental data reported in article PMC9503133, “In Vitro Release, Mucosal Permeation and Deposition of Cannabidiol from Liquisolid Systems: The Influence of Liquid Vehicles” (Pharmaceutics, 2022).
“And” between values parts separate entries of the source, which are not always exact repeats. Equal entries are not always repeated. Where two headings read alike, the source gives them in different places. Marks after values point to notes of the source that are not given here.

What was measured:
[1] = CBD solubility in liquid vehicles (excess CBD, shaking 24 h, HPLC); format: physicochemical
Experimental: The solubility of CBD in the investigated liquids was examined by adding the excess mass of CBD into 1 g of each test liquid in a test tube. The mixture was sonicated (1 h) using an ultrasonicator (Model LUC-405, Daihan Labtech Co., Ltd., Namyangju-si, Korea) and agitated constantly (37 ± 0.5 °C, 24 h) using a shaking water bath (Model LSB-030S, Daihan Labtech Co., Ltd., Namyangju-si, Korea), and the supernatant was filtered through a 0.45 μm syringe filter. The obtained filtrate was weighed, diluted and quantified by HPLC assay. The CBD solubility in the terms of the mg of CBD per g of liquid was calculated.
The amount of CBD was assessed using a modified HPLC method. An Agilent series 1260 combined with an Agilent ZORBAX Eclipse Plus column (C18, 100 × 4.6 mm, 3.5 μm) (Agilent Technologies, Inc., Santa Clara, CA, USA.) was used. The chromatographic separation was attained in 10 min using an isocratic protocol with a mixture of water:acetonitrile (30:70 v/v) comprising 0.1% formic acid set at a 1.5 mL/min flow rate. The injection volume was 20 µL. The column temperature was set at 45 °C, while the UV detector was set to 220 nm.

[2] = set-up: method as in PMID 34774694, PMID 32882367; conditions: ref [3],[4]; cited from earlier work
[3] = cited from earlier work

In the case of `C=C(C)[C@@H]1CCC(C)=C[C@H]1c1c(O)cc(CCCCC)cc1O` [CBD, Cannabidiol], the “CBD Solubility” value ([1]; in CM, 37 ± 0.5 °C) is reported as 386.77 ± 48.85 ^b mg/g, the “CBD Solubility” value ([1]; in DEGEE, 37 ± 0.5 °C) is reported as 579.46 ± 11.79 ^a mg/g and the “CBD Solubility” value ([1]; in EtOH, 37 ± 0.5 °C) is reported as over 1000 mg/g. The “CBD Solubility” value ([1]; in OM, 37 ± 0.5 °C) was 540.31 ± 4.59 ^a mg/g, the “CBD Solubility” value ([1]; in P20, 37 ± 0.5 °C) was 261.73 ± 39.33 ^c mg/g and the “CBD Solubility” value ([1]; in PEG, 37 ± 0.5 °C) was 342.18 ± 49.90 ^b mg/g. The “CBD Solubility” value ([1]; in PG, 37 ± 0.5 °C) was 521.04 ± 55.42 ^a mg/g, the “CBD Solubility” value ([1]; in glycerin, 37 ± 0.5 °C) was 0.09 ± 0.03 ^d mg/g and the solubility at 24 h ([1]; simulated saliva fluid (SSF), simulated saliva fluid pH 6.8, read-out: solubility of CBD in pH 6.8 SSF) was under 5 µg/mL. For the same compound, the solubility at 24 h ([1]; water, converted with the specific gravity of water, read-out: CBD solubility in water) was under 5 µg/mL, the “calculated log n-octanol–water partition coefficient (Kow)” value [2] was 8 and ~ 8 and the “solubility of CBD in 50% EtOH” value ([3]; 50% EtOH receiver medium, ref Casirahi et al. [44]) was 2200 ± 100 µg/mL. The water solubility ([3]; ref [3],[4]) was 5 ppm.
